In one data set the target is T1, CAXII (Homo sapiens, UniProt O43570).
T1 construct: made in house; host or cells: E. coli
The experiment in a line: biochemical. It is filed as binding. The settings on record: FTSA, pH 7.0, 37 °C; read-out: Observed Dissociation Constant (Kd_obs), CAXII.

A further data set deals with CAXIII (Homo sapiens, UniProt Q8N1Q1). The experiment in a line: biochemical. The settings on record: Observed Dissociation Constant (Kd_obs), FTSA, pH 7.0, 37 °C.
The target of another data set is T2, CAII (Homo sapiens, UniProt P00918).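 Also: recombinant human CAII, thermal shift with ANS dye fluorescence, Kd_obs from fitting melting temperature versus ligand concentration, intrinsic values corrected for deprotonated sulfonamide and Zn-bound water fractions.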
T2 construct: made in house; host or cells: E. coli
Description: biochemical. It is filed as binding. Conditions: FTSA, pH 7.0, 37 °C; read-out: Observed Dissociation Constant (Kd_obs), CAII.

Another data set concerns the target T3, CAI (Homo sapiens, UniProt P00915).
T3 construct: made in house; host or cells: E. coli
Description: biochemical. The format is binding. Conditions: FTSA, pH 7.0, 37 °C; read-out: Observed Dissociation Constant (Kd_obs), CAI.

The target in the next data set is T4, CAIX (Homo sapiens, UniProt Q16790).
T4 construct: made in house
The experiment in a line: biochemical. The format is binding. Conditions: FTSA, pH 7.0, 37 °C; read-out: Observed Dissociation Constant (Kd_obs), CAIX.

By melting point is commonly meant the temperature, or range, at which the solid turns liquid.
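For Observed Dissociation Constant (Kd obs), CAXII in this document: recombinant CAXII made in E. coli, ANS-fluorescence thermal shift with affinity fitted from Tm versus ligand concentration, intrinsic energy from Kd_obs corrected for deprotonated sulfonamide and Zn-water fractions.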

Chain of CAXIII (Q8N1Q1 whole entry): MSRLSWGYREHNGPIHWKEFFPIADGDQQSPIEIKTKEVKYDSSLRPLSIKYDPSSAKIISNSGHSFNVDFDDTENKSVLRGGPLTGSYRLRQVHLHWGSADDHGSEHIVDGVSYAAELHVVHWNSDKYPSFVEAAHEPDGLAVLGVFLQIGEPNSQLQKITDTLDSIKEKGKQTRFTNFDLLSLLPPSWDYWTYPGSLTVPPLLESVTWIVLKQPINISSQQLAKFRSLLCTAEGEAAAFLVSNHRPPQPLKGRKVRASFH
T1 sequence (O43570 25-354): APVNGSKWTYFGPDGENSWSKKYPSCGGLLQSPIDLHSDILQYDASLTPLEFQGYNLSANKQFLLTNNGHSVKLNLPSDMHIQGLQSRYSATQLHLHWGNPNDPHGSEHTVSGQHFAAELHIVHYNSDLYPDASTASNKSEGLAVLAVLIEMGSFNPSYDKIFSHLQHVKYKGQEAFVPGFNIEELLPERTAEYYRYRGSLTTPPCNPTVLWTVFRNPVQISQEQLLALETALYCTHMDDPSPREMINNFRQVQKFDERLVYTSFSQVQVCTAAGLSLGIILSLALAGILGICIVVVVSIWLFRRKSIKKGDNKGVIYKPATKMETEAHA
T3 sequence (P00915 whole entry): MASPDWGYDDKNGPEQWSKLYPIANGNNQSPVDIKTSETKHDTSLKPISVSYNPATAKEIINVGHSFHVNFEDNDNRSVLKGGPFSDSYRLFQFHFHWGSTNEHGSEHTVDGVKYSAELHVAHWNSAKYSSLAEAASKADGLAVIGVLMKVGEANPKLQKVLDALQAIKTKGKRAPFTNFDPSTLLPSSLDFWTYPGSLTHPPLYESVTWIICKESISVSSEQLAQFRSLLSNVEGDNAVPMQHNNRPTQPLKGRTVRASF
Description for CAXIII: Human CA isozymes were expressed in E. coli (CAI, II, III, IV, VA, VB, VII, XII, XIII, XIV) or mammalian cells (CAVI and CAIX), chromatographically purified following the published protocols [47], and stored at −80 °C. The protein concentration was determined by UV absorption at 280 nm using Beer–Lambert law.
The QIAGEN Rotor-Gene Q was used to carry out the experiments, with a blue channel used for excitation (365 nm) and detection (460 nm). FTSA in this case relies on an extrinsic probe, 8-anilino-1-naphthalenesulfonate (ANS), to detect the fluorescence increase during protein denaturation, from which protein melting temperature (Tm) can be determined. […] The observed affinity of ligands for CAs was determined by plotting the Tm as a function of ligand concentration and then fitting a curve as described previously [48]. […] Samples were heated from 25 °C to 99 °C at the speed of 1 °C/min.
The intrinsic thermodynamic parameters were calculated as described in [40]. The intrinsic reaction of inhibitor binding to CA is shown in Equation (1).
When calculating Kd_int values, these protein and ligand fractions from Equation (1) have to be accounted for (Equations (2) and (3)). The intrinsic dissociation constant is calculated by multiplying Kd_obs value by the corresponding fractions of protein and ligand (Equation (4)). (2) fRSO2NH^−=10^pH−pKa_RSO2NH2/1+10^pH−pKa_RSO2NH2 (3) fCAZnH2O=1−10^pH−pKa_CAZnH2O/1+10^pH−pKa_CAZnH2O (4) Kd_int=Kd_obs×fRSO2NH^−×fCAZnH2O (5) ΔGint0=RTlnKd_int
The intrinsic standard Gibbs energy changes upon binding were calculated using Equation (5). Here, R—universal ideal gas constant (8.3144 J/mol·K), T—absolute temperature (310.15 K).

Take `NS(=O)(=O)c1ccc(NCC(CC(=O)NN=Cc2ccc([N+](=O)[O-])cc2)C(=O)NN=Cc2ccc([N+](=O)[O-])cc2)cc1` (stereo not drawn) [Compound 17a, 4-((2-(2-(4-Nitrobenzylidene)hydrazine-1-carbonyl)-4-(2-(4-nitrobenzylidene)hydrazineyl)-4-oxobutyl)amino)benzenesulfonamide]: the melting point was 256 to 257 °C. Also, on CAXII, the Kd is 79 µM. On CAXIII, this compound returned a Kd of 19 µM. Besides, at CAII, the Kd is 5.4 µM. Also, the Kd at CAI worked out at 36 µM. The Kd on CAIX was 3.3 µM.
Consider `NS(=O)(=O)c1ccc(NCC(CC(=O)NN=Cc2cccc(O)c2)C(=O)NN=Cc2cccc(O)c2)cc1` (stereo not drawn) [Compound 8a, 4-((2-(2-(3-Hydroxybenzylidene)hydrazine-1-carbonyl)-4-(2-(3-hydroxybenzylidene)hydrazineyl)-4-oxobutyl)amino)benzenesulfonamide], for which the melting point lay in the range of 192 to 193 °C. Also, the Kd at CAXII is 33 µM. The compound also came in with a Kd at CAXIII of 5 µM. Also, the Kd on CAII was found to be 2 µM. The Kd at CAI is 10 µM. Moreover, at CAIX, the Kd stood at 0.67 µM.
With `COc1ccc(C=NNC(=O)CC(CNc2ccc(S(N)(=O)=O)cc2Cl)C(=O)NN=Cc2ccc(OC)cc2)cc1` (stereo not drawn) [Compound 14b, 3-Chloro-4-((2-(2-(4-methoxybenzylidene)hydrazine-1-carbonyl)-4-(2-(4-methoxybenzylidene)hydrazineyl)-4-oxobutyl)amino)benzenesulfonamide], the melting point was in the range of 198 to 199 °C. The Kd on CAXII was found to be 10 µM. At CAXIII, this compound had a Kd of 0.066 µM. In addition, the Kd on CAII worked out at 0.059 µM. Besides, the Kd on CAI was determined as 0.51 µM. At CAIX, the Kd amounted to 0.29 µM.
On to `Cc1ccc(C)n1NC(=O)CC(CNc1ccc(S(N)(=O)=O)cc1)C(=O)Nn1c(C)ccc1C` (stereo not drawn) [Compound 19a, N^1,N^4-bis(2,5-Dimethyl-1H-pyrrol-1-yl)-2-(((4-sulfamoylphenyl)amino)methyl)succinamide], for which the melting point is 195 to 196 °C. The Kd on CAXII came to 10 µM. Besides, on CAXIII, the Kd turned out to be 4 µM. The Kd on CAII came out at 1.7 µM. Further, the Kd at CAI is 10 µM. Also, on CAIX, the Kd was 0.56 µM.
With `NS(=O)(=O)c1ccc(NCC(CC(=O)NN=Cc2ccccc2[N+](=O)[O-])C(=O)NN=Cc2ccccc2[N+](=O)[O-])cc1` (stereo not drawn) [Compound 15a, 4-((2-(2-(2-Nitrobenzylidene)hydrazine-1-carbonyl)-4-(2-(2-nitrobenzylidene)hydrazineyl)-4-oxobutyl)amino)benzenesulfonamide], the melting point lay within 197 to 198 °C. Further, the Kd on CAXII amounted to 50 µM. On CAXIII, this compound gave a Kd of 6.7 µM. Further, the Kd at CAII was determined as 3.3 µM. Besides, the Kd on CAI amounted to 13 µM. In addition, the Kd at CAIX was found to be 1 µM.
In turn, `NS(=O)(=O)c1ccc(NCC(CC(=O)NNC(=S)Nc2ccccc2)C(=O)NNC(=S)Nc2ccccc2)cc1` (stereo not drawn) [Compound 23a, 2,2′-(2-(((4-Sulfamoylphenyl)amino)methyl)succinyl)bis(N-phenylhydrazine-1-carbothioamide)] showed a melting point of 136 to 137 °C. The Kd on CAXII worked out at 2.2 µM. The compound further returned a Kd at CAXIII of 10 µM. In addition, at CAII, the Kd came out at 2 µM. Besides, the Kd at CAI came to 4 µM. Moreover, the Kd at CAIX is 0.13 µM.
`Cn1c(CC(CNc2ccc(S(N)(=O)=O)cc2)c2n[nH]c(=S)n2C)n[nH]c1=S` (stereo not drawn) [Compound 24a, 4-((2,3-bis(4-Methyl-5-thioxo-4,5-dihydro-1H-1,2,4-triazol-3-yl)propyl)amino)benzenesulfonamide]: the melting point was in the range of 170 to 171 °C. Besides, the Kd at CAXII came to 3.3 µM. The compound further yielded a Kd on CAXIII of 19 µM. In addition, the Kd on CAII was found to be 6.7 µM. Also, at CAI, the Kd came to 43 µM. Also, the Kd at CAIX amounted to 0.91 µM.
`NS(=O)(=O)c1ccc(NCC(CC(=O)NN=Cc2ccccc2[N+](=O)[O-])C(=O)NN=Cc2ccccc2[N+](=O)[O-])c(Cl)c1` (stereo not drawn) [Compound 15b, 3-Chloro-4-((2-(2-(2-nitrobenzylidene)hydrazine-1-carbonyl)-4-(2-(2-nitrobenzylidene)hydrazineyl)-4-oxobutyl)amino)benzenesulfonamide] returned a melting point of 178 to 179 °C. Further, the Kd at CAXII worked out at 50 µM. The compound also registered a Kd on CAXIII of 0.4 µM. The Kd on CAII is 0.5 µM. Moreover, the Kd on CAI is 2.5 µM. The Kd at CAIX stood at 0.14 µM.
Regarding `NS(=O)(=O)c1ccc(NCC(CC(=O)NN=Cc2ccccc2Cl)C(=O)NN=Cc2ccccc2Cl)cc1` (stereo not drawn) [Compound 10a, 4-((2-(2-(2-Chlorobenzylidene)hydrazine-1-carbonyl)-4-(2-(2-chlorobenzylidene)hydrazineyl)-4-oxobutyl)amino)benzenesulfonamide], the melting point is 174 to 175 °C. In addition, on CAXII, the Kd came to 50 µM. The compound also had a Kd at CAXIII of 1.7 µM. On CAII, the Kd was determined as 2.5 µM. On CAI, the Kd amounted to 17 µM. Also, at CAIX, the Kd is 0.5 µM.
The compound `CCC(C)=NN1C(=O)CC(CNc2ccc(S(N)(=O)=O)cc2Cl)C1=O` (stereo not drawn) [Compound 4b, 4-(((1-(Butan-2-ylideneamino)-2,5-dioxopyrrolidin-3-yl)methyl)amino)-3-chlorobenzenesulfonamide] had a melting point of 92 to 93 °C. The Kd at CAXII was 4 µM. The Kd on CAXIII was determined as 1.3 µM. For the same compound, the Kd on CAII stood at 0.33 µM. In addition, at CAI, the Kd worked out at 2.9 µM. Besides, the Kd at CAIX turned out to be 0.25 µM.
In turn, `NS(=O)(=O)c1ccc(NCC(CC(=O)NN=Cc2cccc([N+](=O)[O-])c2)C(=O)NN=Cc2cccc([N+](=O)[O-])c2)cc1` (stereo not drawn) [Compound 16a, 4-((2-(2-(3-Nitrobenzylidene)hydrazine-1-carbonyl)-4-(2-(3-nitrobenzylidene)hydrazineyl)-4-oxobutyl)amino)benzenesulfonamide] showed a melting point of 218 to 219 °C. Further, at CAXII, the Kd is 50 µM. Moreover, the Kd on CAXIII came out at 14 µM. The Kd on CAII was 4 µM. The Kd on CAI worked out at 20 µM. Also, the Kd at CAIX was 1.4 µM.
With `Cn1c(CC(CNc2ccc(S(N)(=O)=O)cc2Cl)c2n[nH]c(=S)n2C)n[nH]c1=S` (stereo not drawn) [Compound 24b, 4-((2,3-bis(4-Methyl-5-thioxo-4,5-dihydro-1H-1,2,4-triazol-3-yl)propyl)amino)-3-chlorobenzenesulfonamide], the melting point was 151 to 152 °C. For the same compound, the Kd on CAXII amounted to 1.7 µM. On CAXIII, this compound had a Kd of 1.3 µM. In addition, on CAII, the Kd came to 0.25 µM. Besides, the Kd on CAI stood at 2.9 µM. For the same compound, the Kd on CAIX is 0.059 µM.
`NS(=O)(=O)c1ccc(NCC(CC(=O)NN=Cc2cccc(O)c2)C(=O)NN=Cc2cccc(O)c2)c(Cl)c1` (stereo not drawn) [Compound 8b, 3-Chloro-4-((2-(2-(3-hydroxybenzylidene)hydrazine-1-carbonyl)-4-(2-(3-hydroxybenzylidene)hydrazineyl)-4-oxobutyl)amino)benzenesulfonamide] gave a melting point of 119 to 120 °C. The Kd on CAXII came to 20 µM. At CAXIII, this compound had a Kd of 0.2 µM. For the same compound, on CAII, the Kd was found to be 0.25 µM. Besides, the Kd on CAI stood at 1 µM. Further, at CAIX, the Kd came to 0.1 µM.

For the origin of these results see publication PMC9033141, “Beta and Gamma Amino Acid-Substituted Benzenesulfonamides as Inhibitors of Human Carbonic Anhydrases” (Pharmaceuticals, 2022).
